{
  "source": "paper PMC6704710",
  "about": "“Preclinical evaluation of 3D185, a novel potent inhibitor of FGFR1/2/3 and CSF-1R, in FGFR-dependent and macrophage-dominant cancer models” (Journal of Experimental & Clinical Cancer Research : CR, 2019)",
  "test_in_all_cases": "Eurofins kinase panel",
  "assay_type_in_all_cases": "biochemical",
  "conditions_in_all_cases": "read-out: Inhibition rate (%)",
  "key": {"FGFR4(h)": {"target": "T1, FGFR4(h) (Homo sapiens, UniProt P22455)", "T1 construct": "purchased Eurofins (KinaseProfiler)", "T1 sequence (P22455 22-802)": "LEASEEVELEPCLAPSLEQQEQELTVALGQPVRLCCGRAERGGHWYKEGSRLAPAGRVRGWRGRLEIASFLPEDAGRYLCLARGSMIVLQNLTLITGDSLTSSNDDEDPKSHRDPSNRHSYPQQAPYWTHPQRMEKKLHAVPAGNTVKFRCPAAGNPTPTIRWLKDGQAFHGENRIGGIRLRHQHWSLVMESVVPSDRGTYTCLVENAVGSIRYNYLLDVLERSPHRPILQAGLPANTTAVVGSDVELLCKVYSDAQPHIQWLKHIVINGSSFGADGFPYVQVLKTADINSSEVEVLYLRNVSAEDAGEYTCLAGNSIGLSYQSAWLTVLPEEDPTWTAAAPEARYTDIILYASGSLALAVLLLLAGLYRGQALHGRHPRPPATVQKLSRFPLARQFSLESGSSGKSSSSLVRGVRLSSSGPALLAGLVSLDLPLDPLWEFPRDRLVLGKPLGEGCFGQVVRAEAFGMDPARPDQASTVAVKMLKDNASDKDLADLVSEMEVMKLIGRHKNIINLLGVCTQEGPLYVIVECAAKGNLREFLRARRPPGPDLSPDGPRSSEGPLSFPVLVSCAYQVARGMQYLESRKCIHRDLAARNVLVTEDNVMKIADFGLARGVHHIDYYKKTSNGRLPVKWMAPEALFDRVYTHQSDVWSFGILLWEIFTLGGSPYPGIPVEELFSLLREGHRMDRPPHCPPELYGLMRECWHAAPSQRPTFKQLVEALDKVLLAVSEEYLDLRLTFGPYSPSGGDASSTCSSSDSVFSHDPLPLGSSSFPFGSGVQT"}, "MARK4(h)": {"target": "T2, MARK4(h) (Homo sapiens, UniProt Q96L34)", "T2 construct": "purchased Eurofins (KinaseProfiler)", "T2 sequence (Q96L34 1-752)": "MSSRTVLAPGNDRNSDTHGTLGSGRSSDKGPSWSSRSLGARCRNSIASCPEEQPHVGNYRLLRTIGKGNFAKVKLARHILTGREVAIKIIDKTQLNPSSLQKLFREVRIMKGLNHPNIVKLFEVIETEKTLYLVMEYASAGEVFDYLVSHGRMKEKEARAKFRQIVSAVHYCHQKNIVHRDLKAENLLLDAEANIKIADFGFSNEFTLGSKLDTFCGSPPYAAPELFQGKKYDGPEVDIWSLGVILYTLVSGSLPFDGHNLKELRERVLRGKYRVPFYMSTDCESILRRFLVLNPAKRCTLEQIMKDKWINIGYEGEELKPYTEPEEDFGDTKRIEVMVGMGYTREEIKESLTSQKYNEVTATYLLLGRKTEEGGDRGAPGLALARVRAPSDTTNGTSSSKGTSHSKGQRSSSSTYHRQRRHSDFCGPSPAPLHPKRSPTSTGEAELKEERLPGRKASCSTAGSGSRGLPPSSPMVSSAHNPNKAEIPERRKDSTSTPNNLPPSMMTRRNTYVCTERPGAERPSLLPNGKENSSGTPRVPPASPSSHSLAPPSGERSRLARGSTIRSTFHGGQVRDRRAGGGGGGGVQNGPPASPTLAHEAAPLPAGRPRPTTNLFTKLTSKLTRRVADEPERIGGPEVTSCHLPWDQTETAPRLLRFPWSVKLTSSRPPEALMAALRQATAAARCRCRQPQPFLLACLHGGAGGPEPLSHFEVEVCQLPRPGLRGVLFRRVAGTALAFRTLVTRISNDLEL"}, "PDGFRα(h)": {"target": "T3, PDGFRα(h) (Homo sapiens, UniProt P16234)", "T3 construct": "purchased Eurofins (KinaseProfiler)", "T3 sequence (P16234 24-1089)": "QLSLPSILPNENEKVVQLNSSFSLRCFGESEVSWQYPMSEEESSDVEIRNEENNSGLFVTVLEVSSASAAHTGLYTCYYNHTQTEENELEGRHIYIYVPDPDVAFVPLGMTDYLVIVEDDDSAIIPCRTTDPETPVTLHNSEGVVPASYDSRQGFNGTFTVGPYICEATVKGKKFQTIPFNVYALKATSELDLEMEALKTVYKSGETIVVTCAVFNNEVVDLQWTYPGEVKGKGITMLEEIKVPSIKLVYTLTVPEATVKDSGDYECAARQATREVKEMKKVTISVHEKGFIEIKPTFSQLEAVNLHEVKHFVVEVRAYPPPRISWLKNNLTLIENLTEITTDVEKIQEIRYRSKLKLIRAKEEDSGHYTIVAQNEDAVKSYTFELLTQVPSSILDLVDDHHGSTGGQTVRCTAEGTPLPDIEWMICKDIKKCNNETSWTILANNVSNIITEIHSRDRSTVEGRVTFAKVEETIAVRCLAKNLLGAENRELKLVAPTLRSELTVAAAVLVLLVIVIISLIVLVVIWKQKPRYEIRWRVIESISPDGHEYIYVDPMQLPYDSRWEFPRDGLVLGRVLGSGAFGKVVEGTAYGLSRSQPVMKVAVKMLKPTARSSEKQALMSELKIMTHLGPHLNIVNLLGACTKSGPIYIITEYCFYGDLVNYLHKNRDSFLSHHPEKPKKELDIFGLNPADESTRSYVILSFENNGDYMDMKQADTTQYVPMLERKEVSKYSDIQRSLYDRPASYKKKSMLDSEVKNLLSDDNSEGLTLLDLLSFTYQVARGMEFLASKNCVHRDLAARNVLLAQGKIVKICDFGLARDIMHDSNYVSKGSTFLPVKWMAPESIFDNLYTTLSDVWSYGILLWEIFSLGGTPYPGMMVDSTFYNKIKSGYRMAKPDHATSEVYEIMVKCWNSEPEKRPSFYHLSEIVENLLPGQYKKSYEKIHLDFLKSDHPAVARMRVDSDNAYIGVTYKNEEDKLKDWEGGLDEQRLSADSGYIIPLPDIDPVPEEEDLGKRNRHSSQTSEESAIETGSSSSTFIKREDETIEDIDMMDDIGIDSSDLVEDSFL"}, "PKD3(h)": {"target": "T4, PKD3(h) (Homo sapiens, UniProt O94806)", "T4 construct": "purchased Eurofins (KinaseProfiler)", "T4 sequence (O94806 1-890)": "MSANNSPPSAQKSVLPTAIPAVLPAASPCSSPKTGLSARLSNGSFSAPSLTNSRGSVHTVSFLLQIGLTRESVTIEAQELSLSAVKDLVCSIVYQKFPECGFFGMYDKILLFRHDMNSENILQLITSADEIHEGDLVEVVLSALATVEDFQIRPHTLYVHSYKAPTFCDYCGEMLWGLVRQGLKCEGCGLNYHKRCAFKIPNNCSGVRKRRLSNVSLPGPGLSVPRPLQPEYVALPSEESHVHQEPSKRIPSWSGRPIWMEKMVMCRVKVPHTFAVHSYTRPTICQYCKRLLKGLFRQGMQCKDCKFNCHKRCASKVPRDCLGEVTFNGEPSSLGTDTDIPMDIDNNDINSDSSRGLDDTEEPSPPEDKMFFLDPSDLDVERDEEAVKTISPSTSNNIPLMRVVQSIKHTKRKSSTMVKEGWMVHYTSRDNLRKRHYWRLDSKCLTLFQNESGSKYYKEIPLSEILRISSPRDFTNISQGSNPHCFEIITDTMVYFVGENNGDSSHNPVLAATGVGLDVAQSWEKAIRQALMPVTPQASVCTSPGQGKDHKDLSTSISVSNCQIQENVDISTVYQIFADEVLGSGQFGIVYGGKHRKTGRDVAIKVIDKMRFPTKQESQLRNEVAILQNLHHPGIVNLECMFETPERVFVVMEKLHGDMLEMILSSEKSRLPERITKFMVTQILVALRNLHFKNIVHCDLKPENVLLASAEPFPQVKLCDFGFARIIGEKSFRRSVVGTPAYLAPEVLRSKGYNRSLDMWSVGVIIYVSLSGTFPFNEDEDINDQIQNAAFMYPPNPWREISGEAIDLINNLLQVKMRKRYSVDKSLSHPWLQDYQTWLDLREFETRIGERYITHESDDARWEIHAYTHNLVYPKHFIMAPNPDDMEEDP"}, "ZAP-70(h)": {"target": "T5, ZAP-70(h) (Homo sapiens, UniProt P43403)", "T5 construct": "purchased Eurofins (KinaseProfiler)", "T5 sequence (P43403 1-619)": "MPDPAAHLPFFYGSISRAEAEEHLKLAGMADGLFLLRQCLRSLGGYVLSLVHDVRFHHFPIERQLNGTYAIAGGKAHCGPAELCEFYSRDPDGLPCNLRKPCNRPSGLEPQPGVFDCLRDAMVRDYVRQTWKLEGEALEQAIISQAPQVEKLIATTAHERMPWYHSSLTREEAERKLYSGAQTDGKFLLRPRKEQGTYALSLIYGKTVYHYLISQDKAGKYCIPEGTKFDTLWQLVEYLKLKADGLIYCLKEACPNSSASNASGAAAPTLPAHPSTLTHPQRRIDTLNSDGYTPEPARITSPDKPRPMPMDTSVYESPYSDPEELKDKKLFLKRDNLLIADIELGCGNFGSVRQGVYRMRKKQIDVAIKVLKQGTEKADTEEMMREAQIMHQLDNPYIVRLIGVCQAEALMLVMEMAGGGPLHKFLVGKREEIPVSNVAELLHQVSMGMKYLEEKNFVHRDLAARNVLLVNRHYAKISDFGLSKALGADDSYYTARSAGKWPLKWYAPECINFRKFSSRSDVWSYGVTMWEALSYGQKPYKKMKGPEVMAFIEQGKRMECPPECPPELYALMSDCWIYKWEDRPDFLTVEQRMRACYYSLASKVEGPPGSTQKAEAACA"}},
  "data": [
    {"compound": "COc1cc(OC)c(Cl)c(-c2ccc3c(NC(=O)c4ccc(N5CCNC(C)(C)C5)cc4)n[nH]c3n2)c1Cl", "note": "[3D185]", "values": [
      {"measurement": "inhibition at 0.01 µM", "setting": "FGFR4(h); 10 nM", "result": 43, "unit": "%"},
      {"measurement": "inhibition at 0.1 µM", "setting": "FGFR4(h); 100 nM", "result": 91, "unit": "%"},
      {"measurement": "inhibition at 1 µM", "setting": "FGFR4(h); 1000 nM", "result": 100, "unit": "%"},
      {"measurement": "inhibition at 0.01 µM", "setting": "MARK4(h); 10 nM", "result": 3, "unit": "%"},
      {"measurement": "inhibition at 0.1 µM", "setting": "MARK4(h); 100 nM", "result": 5, "unit": "%"},
      {"measurement": "inhibition at 1 µM", "setting": "MARK4(h); 1000 nM", "result": -2, "unit": "%"},
      {"measurement": "inhibition at 0.01 µM", "setting": "PDGFRα(h); 10 nM", "result": 9, "unit": "%"},
      {"measurement": "inhibition at 0.1 µM", "setting": "PDGFRα(h); 100 nM", "result": 6, "unit": "%"},
      {"measurement": "inhibition at 1 µM", "setting": "PDGFRα(h); 1000 nM", "result": 10, "unit": "%"},
      {"measurement": "inhibition at 0.01 µM", "setting": "PKD3(h); 10 nM", "result": -3, "unit": "%"},
      {"measurement": "inhibition at 0.1 µM", "setting": "PKD3(h); 100 nM", "result": -2, "unit": "%"},
      {"measurement": "inhibition at 1 µM", "setting": "PKD3(h); 1000 nM", "result": 11, "unit": "%"},
      {"measurement": "inhibition at 0.01 µM", "setting": "ZAP-70(h); 10 nM", "result": 12, "unit": "%"},
      {"measurement": "inhibition at 0.1 µM", "setting": "ZAP-70(h); 100 nM", "result": 0, "unit": "%"},
      {"measurement": "inhibition at 1 µM", "setting": "ZAP-70(h); 1000 nM", "result": 8, "unit": "%"}
    ]}
  ]
}
